A short description of this data set: 1-octanol/water partition coefficient (logPow) of the matrix by the high-performance liquid chromatography method, OECD Test Guideline 117. Type of data set: physicochemical. Conditions: HPLC method of OECD Test Guideline 117, matrix for MALDI mass spectrometry. The text has this:
The low polar matrix for MALDI mass spectrometry which can be used in the invention is a low polar matrix having a 1-octanol/water partition coefficient from 4.1 to 4.8 (more preferably from 4.3 to 4.8). The 1-octanol/water partition coefficient of the matrix is a numerical value measured by the high-performance liquid chromatography method described in OECD Test Guideline 117.

These results are taken from patent publication US10410851B2, “Matrix-assisted laser desorption mass spectrometry of high molecular weight polyoxyethylene derivative” (NOF CORPORATION, priority 2015, dated 2019).

Usually chromatographic logP stands for a lipophilicity value derived from retention on a column. Low values mean lower lipophilicity, high ones higher lipophilicity.

As for `C/C(C=C(C#N)C#N)=C\c1ccc(C(C)(C)C)cc1` [Trans-2-[3-(4-tert-butylphenyl)-2-methyl-2-propenylidene]malononitrile], the “1-octanol/water partition coefficient (logPow)” value is recorded as 4.6.

Molecule `N#CC(=Cc1ccc(O)cc1)C(=O)O` [α-cyano-4-hydroxycinnamic acid] came in with a chromatographic logP of 0.9.

For the molecule `O=C(O)c1cc(O)ccc1O` [2,5-dihydroxybenzoic acid], the chromatographic logP (1-octanol/water) turned out to be 0.6.
